Data reported in publication PMC4669722, “Antitumour potential of BPT: a dual inhibitor of cdk4 and tubulin polymerization” (Cell Death & Disease, 2015).

How the values were obtained:
[1] = system: BNL SV A.8 (SV40-mediated transformed mouse embryonic hepatic cell line); experiment: Long-term cell survival assay, BNL SV A.8; assay type: cell-based; conditions: BNL SV A.8, 12 days
Protocol: Fig. S3: Long term survival of Mouse embryonic normal hepatic cell line (BNL CL2) and SV40 mediated transformed mouse embryonic hepatic cell line (BNL SV A.8) after the treatment with BPT. The cells were treated with the diffrent concentrations of BPT and then incubated in drug free medium for 12 days. the colonies were fixed in methanol : acetic acid (2: 1) and stained with 1% crystal violet and representative plates were scanned using the gel documentation system .

MTD finding study = assay type: in vivo; conditions: mice
Protocol: Swiss-albino mice were used to determine the MTD for the compound. BPT was weighed and mixed with 0.5% (w/v) carboxymethylcellulose and triturated with Tween-20 (secundum artum) with gradual addition of water to make up the final concentration. Care was taken not to exceed >0.25% of Tween-20 in the final formulation of the BPT. In this study, six animals per group were administered with BPT at different doses for 5 days (Q1D × 5) via intraperitoneal route. Animals were monitored for weight loss, morbidity symptoms and mortality up to 2 weeks by the end of treatment. Significant weight loss was considered when mean animal weight dropped by ⩾10% and was considered highly significant when the drop was ⩾20%.

[2] = system: Calu-1 (NSCLC; p53 null, pRb+); experiment: Cell proliferation (MTT) assay, Calu-1; assay type: cell-based, human
Protocol: All 10 human cancer cell lines were maintained at 37 °C in 5% CO2 in RPMI-1640 medium, supplemented with 10% foetal calf serum and 100 μg/ml normocin. The 10 cancer cell lines used for screening were all obtained from ATCC (Manassas, VA, USA); they were the NSCLC (a form of cancer that is resistant to chemotherapy) lines: NCI-H460 (pRb^+, p53^+), A549 (pRb^+, p53^+), Calu-1 (pRb^+, p53-null), NCI-H1299 (pRb^+, p53-null), NCI-H358 (pRb-null, p53-null); the colon cancer line LS174T (pRb^+, p53^+); the prostate cancer line PC-3 (pRb^+, p53-null); the pancreatic cancer line MiaPaca (pRb^+, p53-mutant). The genotypes within brackets indicate the status of the tumour suppressor proteins pRb and p53. The mouse embryonic normal hepatic cell line (BNL CL2) and its SV40 large T-antigen-transformed counterpart cell line (BNL SV A.8) were also purchased from ATCC. The large T-antigen inactivates the tumour suppressor proteins p53 and pRb. The detailed procedure of cell proliferation (MTT) assay and IC50 determination was described previously.[32]

A549 and Calu-1 cells = experiment: Colony formation (clonogenic) assay, A549 and Calu-1; assay type: cell-based, human; conditions: p53+ A549 and p53-null Calu-1, 12-day experiment
Protocol: A549 and Calu-1 cells were plated at a concentration of 500 cells per well in 35 mm/6-well plates in 2 ml complete medium. The plates were incubated for 24 h stabilization and further incubated with a range of concentrations of fascaplysin and BPT for 24 h. Plates were then gently washed with PBS, replaced with fresh medium and incubated at 37 °C. After 10–12 days, cells were fixed in methanol:acetic acid (2 : 1) fixative for 10 min, washed, air dried and stained with 1% crystal violet. The colonies were evaluated by visual counts. The number of colonies in treated cultures was expressed as a percentage of the control cultures. All results represent means and standard deviations from at least three independent experiments.

MAPK1 = MAPK1 (Homo sapiens, UniProt P27361); experiment: Kinase profiling (Millipore), MAPK1; assay type: biochemical
MAPK1, sequence (P27361 2-379 limits assumed): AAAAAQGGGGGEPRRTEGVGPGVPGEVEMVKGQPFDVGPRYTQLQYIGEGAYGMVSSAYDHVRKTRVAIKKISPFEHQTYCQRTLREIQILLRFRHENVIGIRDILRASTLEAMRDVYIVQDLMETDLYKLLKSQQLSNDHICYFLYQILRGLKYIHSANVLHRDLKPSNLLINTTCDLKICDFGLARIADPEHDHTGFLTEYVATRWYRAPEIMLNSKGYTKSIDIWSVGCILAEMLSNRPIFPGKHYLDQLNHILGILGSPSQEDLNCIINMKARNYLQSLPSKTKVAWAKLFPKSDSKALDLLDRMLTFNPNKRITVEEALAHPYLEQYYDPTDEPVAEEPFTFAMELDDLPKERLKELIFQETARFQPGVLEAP
Protocol: The in vitro kinase assays for testing against Cdk4-cyclin D1, Cdk2-cyclin A, Cdk1-cyclin B1 and Cdk9-cyclin T1 were performed in-house. The methodology and results have been reported previously.[20], [30], [31], [32], [45] The kinase profiling for 58 representative kinases was carrried out commercially at Millipore Bioscience Division, Livingston, UK.

Q: Which results are given for `O=C(c1ccccc1-c1ccccc1)N1CCc2c([nH]c3ccccc23)C1` [BPT, 2-(biphenyl-2-carbonyl)-2,3,4,9-tetrahydro-1H-pyrido[3,4-b]indole]?
A: number of colonies, long-term survival [1]: selectively reduces the number of colonies; maximum-tolerated dose (MTD finding study): 1000 mg/kg; IC50 ([2]; Homo sapiens, Calu-1, 48 h, MTT, read-out: IC50 cell growth inhibition, Calu-1): 2800 nM; resistance of Calu-1 cells to growth inhibition ([2]; relative to other cell lines): two- to three-fold; colony formation efficiency (A549 and Calu-1 cells): significant reduction; IC50 (MAPK1): > 10000 nM
